Experimental data: PMC2735267 (Neuropharmacology, 2009)
Read-outs that look alike come from different tables or passages of the source.

What was measured:
α7* nAChR binding sites = settings: ten days 2 mg/kg/h nicotine, DBA/2J, ref Pauly et al., 1991, cited from earlier work
α7-nAChR = α7-nAChR (Mus musculus, UniProt P49582); assay: biochemical; format: binding, C57BL/6J mice
[1] = tested on: [125I]epibatidine binding sites (β2*- and β4*-nAChR); design: species or system C57BL/6J mice; settings: inferior colliculus, wild-type
human α7 = settings: read-out: Ki human α7; cited from earlier work
β2*-nAChR [2] = molecular target: β2*-nAChR (Mus musculus, UniProt O70174+Q9ERK7); assay: biochemical; format: binding, C57BL/6J mice
human α4β2 = settings: read-out: Ki human α4β2; cited from earlier work
[3] = tested on: [3H]noradrenaline release; settings: read-out: EC50 [3H]noradrenaline release; cited from earlier work
β4*-nAChR [4] = molecular target: β4*-nAChR (Mus musculus, UniProt Q8R493+Q8R4G9); assay: biochemical; format: binding, C57BL/6J mice
β4*-nAChR [5] = settings: ref Luetje and Patrick, 1991; cited from earlier work
[3H]dopamine release = read-out: EC50 [3H]dopamine release; cited from earlier work
α4β2* receptors = settings: read-out: Ki α4β2* receptors in rat brain; cited from earlier work
α4β2-nAChR = settings: cited from earlier work
α7* receptors = settings: read-out: Ki α7* receptors in rat brain; cited from earlier work
β2*-nAChR [6] = settings: ref Luetje and Patrick, 1991; cited from earlier work
human α7 nAChR = settings: read-out: EC50 human α7 nAChR; cited from earlier work
[7] = rats; ref Sloan et al., 1988; cited from earlier work
DBA/2J mice = assay: 3-IC-induced hypothermia; format: in vivo, mouse
C57BL/6J mice = assay: 3-IC-induced hypothermia; format: in vivo, mouse
human α3β4-nAChR = settings: Xenopus oocytes; ref Abin-Carriquiry et al., 2006; cited from earlier work

Chain of α7-nAChR (P49582 23-502): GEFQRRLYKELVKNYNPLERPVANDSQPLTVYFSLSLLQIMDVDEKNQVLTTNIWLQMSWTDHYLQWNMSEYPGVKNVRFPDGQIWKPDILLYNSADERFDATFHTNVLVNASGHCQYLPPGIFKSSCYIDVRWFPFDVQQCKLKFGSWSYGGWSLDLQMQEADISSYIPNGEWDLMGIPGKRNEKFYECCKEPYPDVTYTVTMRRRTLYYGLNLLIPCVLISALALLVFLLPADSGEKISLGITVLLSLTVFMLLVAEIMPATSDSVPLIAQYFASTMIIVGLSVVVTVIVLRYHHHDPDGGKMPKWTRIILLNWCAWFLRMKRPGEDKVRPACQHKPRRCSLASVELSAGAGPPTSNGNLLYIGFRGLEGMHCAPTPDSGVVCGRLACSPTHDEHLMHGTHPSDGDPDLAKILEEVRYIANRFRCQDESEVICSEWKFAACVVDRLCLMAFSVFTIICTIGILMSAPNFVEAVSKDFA
Chain of β2*-nAChR (Mus musculus, UniProt O70174+Q9ERK7) (O70174 31-629): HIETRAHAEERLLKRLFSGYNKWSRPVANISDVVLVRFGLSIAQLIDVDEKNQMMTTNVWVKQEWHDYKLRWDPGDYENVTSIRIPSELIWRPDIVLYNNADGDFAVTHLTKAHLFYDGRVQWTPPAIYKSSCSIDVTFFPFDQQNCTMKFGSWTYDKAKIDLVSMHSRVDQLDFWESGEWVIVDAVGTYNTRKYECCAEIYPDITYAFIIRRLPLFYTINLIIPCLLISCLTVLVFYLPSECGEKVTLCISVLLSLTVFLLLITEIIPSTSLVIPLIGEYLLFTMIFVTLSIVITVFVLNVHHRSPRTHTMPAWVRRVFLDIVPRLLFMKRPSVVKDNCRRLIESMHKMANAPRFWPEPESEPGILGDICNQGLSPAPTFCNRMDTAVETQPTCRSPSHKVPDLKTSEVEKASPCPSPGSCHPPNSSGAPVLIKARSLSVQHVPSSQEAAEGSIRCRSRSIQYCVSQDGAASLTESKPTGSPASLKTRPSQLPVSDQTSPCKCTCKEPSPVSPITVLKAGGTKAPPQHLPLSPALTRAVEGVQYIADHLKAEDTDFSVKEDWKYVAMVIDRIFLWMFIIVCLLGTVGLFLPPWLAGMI
Chain of β2*-nAChR (Mus musculus, UniProt O70174+Q9ERK7) (Q9ERK7 26-501): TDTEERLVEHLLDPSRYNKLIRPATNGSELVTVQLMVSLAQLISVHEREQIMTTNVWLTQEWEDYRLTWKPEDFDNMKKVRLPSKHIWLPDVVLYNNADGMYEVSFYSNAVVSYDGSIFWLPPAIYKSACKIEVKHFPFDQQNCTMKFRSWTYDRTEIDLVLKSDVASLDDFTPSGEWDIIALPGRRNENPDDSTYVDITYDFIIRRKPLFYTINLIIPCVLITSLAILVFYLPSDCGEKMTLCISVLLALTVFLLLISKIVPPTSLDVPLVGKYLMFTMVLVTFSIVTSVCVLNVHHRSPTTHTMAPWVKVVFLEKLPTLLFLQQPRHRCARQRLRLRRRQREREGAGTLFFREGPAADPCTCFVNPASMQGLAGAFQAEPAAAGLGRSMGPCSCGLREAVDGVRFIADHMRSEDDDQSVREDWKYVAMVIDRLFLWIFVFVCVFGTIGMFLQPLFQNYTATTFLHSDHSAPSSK
Chain of β4*-nAChR (Mus musculus, UniProt Q8R493+Q8R4G9) (Q8R493 21-495): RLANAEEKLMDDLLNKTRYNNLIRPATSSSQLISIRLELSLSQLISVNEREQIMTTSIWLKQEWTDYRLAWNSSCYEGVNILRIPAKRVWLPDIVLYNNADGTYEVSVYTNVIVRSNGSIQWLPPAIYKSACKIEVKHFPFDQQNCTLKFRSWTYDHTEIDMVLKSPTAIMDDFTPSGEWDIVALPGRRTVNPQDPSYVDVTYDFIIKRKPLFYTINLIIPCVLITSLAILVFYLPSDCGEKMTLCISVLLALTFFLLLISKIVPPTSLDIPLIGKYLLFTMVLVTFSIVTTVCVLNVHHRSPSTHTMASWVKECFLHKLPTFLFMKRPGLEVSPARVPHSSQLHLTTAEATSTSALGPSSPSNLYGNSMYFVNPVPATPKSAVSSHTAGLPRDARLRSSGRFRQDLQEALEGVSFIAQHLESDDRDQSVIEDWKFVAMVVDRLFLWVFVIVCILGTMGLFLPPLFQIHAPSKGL
Chain of β4*-nAChR (Mus musculus, UniProt Q8R493+Q8R4G9) (Q8R4G9 26-499): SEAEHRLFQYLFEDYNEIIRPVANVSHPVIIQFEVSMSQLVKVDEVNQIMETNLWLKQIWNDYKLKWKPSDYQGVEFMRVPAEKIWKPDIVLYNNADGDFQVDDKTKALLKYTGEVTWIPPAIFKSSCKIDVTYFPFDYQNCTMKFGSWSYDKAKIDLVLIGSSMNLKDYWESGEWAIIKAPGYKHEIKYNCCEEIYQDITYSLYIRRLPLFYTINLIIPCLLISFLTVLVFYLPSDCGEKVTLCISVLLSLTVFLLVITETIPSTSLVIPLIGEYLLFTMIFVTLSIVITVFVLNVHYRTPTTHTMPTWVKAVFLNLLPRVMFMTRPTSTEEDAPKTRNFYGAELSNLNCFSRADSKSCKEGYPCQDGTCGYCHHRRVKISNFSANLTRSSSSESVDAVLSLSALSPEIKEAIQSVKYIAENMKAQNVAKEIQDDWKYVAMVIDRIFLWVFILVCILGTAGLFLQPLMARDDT

CN1CCC[C@H]1c1cccnc1 [nicotine]
increase in [125I]α-bungarotoxin binding sites (α7* nAChR binding sites; caudate putamen): 14.2%
increase in [125I]α-bungarotoxin binding sites (α7* nAChR binding sites; dentate gyrus): 12.6%
increase in [125I]α-bungarotoxin binding sites (α7* nAChR binding sites; hippocampus): 33%
increase in [125I]α-bungarotoxin binding sites (α7* nAChR binding sites; medial habenula): 22.6%
increase in [125I]α-bungarotoxin binding sites (α7* nAChR binding sites; substantia nigra): 25.6%
increase in [125I]α-bungarotoxin binding sites (α7* nAChR binding sites; zona incerta): 17.6%
Ki (α7-nAChR): 0.93 ± 0.1 µM
difference in affinity for the two [125I]epibatidine binding sites [1]: 20 fold

O=c1cccc2n1C[C@@H]1CNC[C@H]2C1 [cytisine, reference compound]
Ki (human α7): 30 µM
Ki (β2*-nAChR [2]): 0.00035 ± 1e-05 µM
Ki (human α4β2): 0.0006 µM
EC50 [3]: 7.4 µM
Ki (β4*-nAChR [4]): 0.0097 ± 0.0015 µM
agonist efficacy at β4*-nAChR (β4*-nAChR [5]): full agonist
EC50 ([3H]dopamine release): 0.28 µM
Ki (α4β2* receptors): 0.0012 µM
EC50 (α4β2-nAChR; read-out: EC50 high agonist sensitive form of α4β2-nAChR): 0.005 µM
EC50 (α4β2-nAChR; read-out: EC50 low agonist sensitive form of α4β2-nAChR): 2 µM
Ki (α7* receptors): 8 µM
agonist efficacy at β2*-nAChR (β2*-nAChR [6]): partial agonist
EC50 (human α7 nAChR): 83 µM
half-life [7]: longer half-life than nicotine
Ki (α7-nAChR): 1.58 ± 0.18 µM
difference in affinity for the two [125I]epibatidine binding sites [1]: 60 fold

CNC1(C)C2CCC(C2)C1(C)C (stereo not drawn) [mecamylamine, reference compound]
effect of mecamylamine alone on body temperature (DBA/2J mice; 1 mg/kg ip, both mice strains): did not affect body temperature
time of maximal hypothermia after 3-IC injection, mecamylamine pretreated (DBA/2J mice; mecamylamine 1 mg/kg + 3-IC 0.2 mg/kg, DBA/2J): 20 min
3-IC-induced hypothermia after mecamylamine pretreatment (DBA/2J mice; mecamylamine 1 mg/kg ip 10 min before 3-IC 0.2 mg/kg, DBA/2J): 1.13 ± 0.42 °C
blockade of 3-IC-induced hypothermia (C57BL/6J mice; mecamylamine 1 mg/kg before 3-IC 0.2 mg/kg): complete
3-IC-induced hypothermia after mecamylamine pretreatment (C57BL/6J mice; mecamylamine 1 mg/kg ip 10 min before 3-IC 0.2 mg/kg): 0.13 ± 0.09 °C

O=c1c(Br)ccc2n1C[C@@H]1CNC[C@H]2C1 [3-bromocytisine]
agonist efficacy at human α3β4-nAChR (human α3β4-nAChR): full agonist

C[N+](C)(C)CCCCCC[N+](C)(C)C [hexamethonium, reference compound]
effect of hexamethonium alone on body temperature (DBA/2J mice; 10 mg/kg ip, DBA/2J, vs saline): modest, but statistically significant, hypothermia
maximal 3-IC-induced hypothermia after hexamethonium pretreatment (DBA/2J mice; hexamethonium 10 mg/kg 10 min before 3-IC 0.2 mg/kg, DBA/2J): 5.66 ± 0.45 °C
blockade of 3-IC-induced hypothermia (DBA/2J mice; hexamethonium 10 mg/kg, DBA/2J): 33%
effect of hexamethonium alone on body temperature (C57BL/6J mice; 10 mg/kg ip, vs saline): did not affect body temperature
blockade of 3-IC-induced hypothermia (C57BL/6J mice; hexamethonium 10 mg/kg): 60%
maximal 3-IC-induced hypothermia after hexamethonium pretreatment (C57BL/6J mice; hexamethonium 10 mg/kg 10 min before 3-IC 0.2 mg/kg): 3.75 ± 0.67 °C
